Measurements: US20220389477A1, “METHOD FOR EVALUATING ANTIBIOTIC SUSCEPTIBILITY” (Vrije Universiteit Brussel, priority 2019, published 2022)
Values after ≈ are worked out from the molar mass of the structure shown. Where two headings read alike, the source gives them in different places.

Experiments:
Format in all cases: cell-based
[1] = test system: Acinetobacter Species; assay: Broth microdilution (BMD); settings: culture AC/2990
[2] = test system: Acinetobacter Species; assay: E-test; settings: culture AC/2990
[3] = test system: Acinetobacter Species; assay: Optical third-derivative MIC method, culture in broth; settings: AC/2990; for MIC: Acinetobacter
Text: (§1) The method of FIG. 1 starts at a time equal to zero, t0 (1). Preferably, said t0 is the moment a pure bacteria culture is finished being prepared. Alternatively, said t0 is the moment all wells contain both said bacteria culture and said antimicrobial drug. After the starting of the experiment each well is periodically illuminated with a light source and the intensity of the transmitted light is detected with a photodetector (2). Preferably, each well is illuminated and the intensity of the transmitted light is detected every hour (2). More preferably, each well is illuminated and the intensity of the transmitted light is detected every 5 to 15 min. After a predetermined time length, preferably after 4 hours, a first, a second and a third derivative of said measured intensity is calculated (3) in a first and a second time frame for each well. Preferably, said second time frame is the last measured time frame after the test has been running for said predetermined time length, and said first time frame is the time frame preceding the second time frame. More preferably, said first time frame is between two and three hours and said second time frame is between three and four hours. After the calculation of said derivatives, said first derivative in said second time frame of said reference well is compared to a growth speed threshold value (4). Preferably, said growth speed threshold value is 0.166 (4). If said first derivative in said second time frame of said reference well is larger than or equal to said growth speed threshold value said bacteria culture is classified as Type I (4). If said first derivative in said second time frame of said reference well is smaller than said growth speed threshold value said bacteria culture is classified as Type II (4). Subsequently, independent of the classification of the bacteria culture according to the two types, the method comprises the following steps which are performed for each well or for all wells except said reference well. Both said first and said second time frames are evaluated to see if there is an inflection point present in the second derivative in said first and/or said second time frame (5).
(§2) If said first and/or said second time frame comprise said inflection point than said third derivative in said first time frame is compared to said third derivative in said second time frame (6). If said third derivative in said first time frame is larger than said third derivative in said second time frame, then said first time frame and said second time frame are selected as a first and second time frame to be used in a minimal inhibitory concentration determination method (10). If said third derivative in said first time frame is not larger than said third derivative in said second time frame, then said well is illuminated again after a certain time period, preferably an hour, more preferably 5 to 15 min after said predetermined time length said, with a light source and the intensity of the transmitted light is detected with a photodetector forming a new time frame subsequent to said second time frame (7). A third derivative, and possibly also a first and/or a second derivative, is calculated in said new time frame (7). Further, in step (7) a new first time frame is put equal to said second time frame and a new second time frame to equal to said new time frame. Subsequently, said third derivative in said new first time frame is compared to said third derivative in said new second time frame (8). If said derivative in said new first time frame is larger than said third derivative in said new second time frame, then said new first time frame and said new second time frame are selected as a first and second time frame to be used in a minimal inhibitory concentration determination method (10). […]

[4] = test system: Klebsiella pneumonia culture; assay: as above; settings: for HR? at MIC (25%) / HR? at MIC (40%) / HR? at MIC (60%) / HR? at MIC (75%): ratio MIC T2/T1; for MIC: Klebsiella pneumoniae, 3 h, 3 h-4 h
Text: as §1, §2

With C[C@@H](O)[C@H]1C(=O)N2C(C(=O)O)=C(SCCN=CN)C[C@H]12 [imipenem] the MIC [1] was 0.25 µg/mL (≈ 0.835 µM), the MIC [2] was 0.25 µg/mL (≈ 0.835 µM) and the “HR? at MIC (40%)” value ([3]; ratio MIC T2/T1) was “no (If the ratio of the MIC value in the second time frame over the MIC value in the first time frame is lower than or equal to 4 then the ratio is labelled not to be heteroresistant)”. For the same compound, the “HR? at MIC (60%)” value ([3]; ratio MIC T2/T1) was “no (If the ratio of the MIC value in the second time frame over the MIC value in the first time frame is lower than or equal to 4 then the ratio is labelled not to be heteroresistant)”, the “HR? at MIC (75%)” value ([3]; ratio MIC T2/T1) was “no (If the ratio of the MIC value in the second time frame over the MIC value in the first time frame is lower than or equal to 4 then the ratio is labelled not to be heteroresistant)” and the “HR? at MIC (25%)” value ([3]; ratio MIC T2/T1, omitted (Type II)) was “yes (If the ratio of the MIC value in the second time frame over the MIC value in the first time frame is higher than or equal to 8 then the ratio is labelled to be heteroresistant)”. The MIC ([3]; 2 h-3 h, omitted from determination (Type II), read-out: MIC (25%) T1) was 0.25 µg/mL (≈ 0.835 µM), the MIC ([3]; 2 h-3 h, read-out: MIC (40%) T1) was 0.25 µg/mL (≈ 0.835 µM) and the MIC ([3]; 2 h-3 h, read-out: MIC (60%) T1) was under 0.125 µg/mL. The MIC ([3]; 2 h-3 h, read-out: MIC (75%) T1) was under 0.125 µg/mL, the MIC ([3]; 3 h-4 h, omitted from determination (Type II), read-out: MIC (25%) T2) was 128 µg/mL (≈ 428 µM) and the MIC ([3]; 3 h-4 h, read-out: MIC (40%) T2) was 0.25 µg/mL (≈ 0.835 µM). For the same compound, the MIC ([3]; 3 h-4 h, read-out: MIC (60%) T2) was under 0.125 µg/mL, the MIC ([3]; 3 h-4 h, read-out: MIC (75%) T2) was under 0.125 µg/mL and the MIC ([3]; FIG. 5A, overall conclusion, read-out: MIC value determined by the method) was 0.25 µg/mL (≈ 0.835 µM). The “HR? at MIC (25%)” value ([4]; KP/38.3002, Table 5) was “no (If the ratio of the MIC value in the second time frame over the MIC value in the first time frame is lower than or equal to 4 then the ratio is labelled not to be heteroresistant)”, the “HR? at MIC (40%)” value ([4]; KP/38.3002, Table 5) was “yes (If the ratio of the MIC value in the second time frame over the MIC value in the first time frame is higher than or equal to 8 then the ratio is labelled to be heteroresistant)” and the “HR? at MIC (60%)” value ([4]; KP/38.3002, Table 5) was “yes (If the ratio of the MIC value in the second time frame over the MIC value in the first time frame is higher than or equal to 8 then the ratio is labelled to be heteroresistant)”. For the same compound, the “HR? at MIC (75%)” value ([4]; KP/38.3002, Table 5) was “yes (If the ratio of the MIC value in the second time frame over the MIC value in the first time frame is higher than or equal to 8 then the ratio is labelled to be heteroresistant)”, the “HR? at MIC (25%)” value ([4]; KP/38.3002, Table 10) was “yes (If the ratio of the MIC value in the second time frame over the MIC value in the first time frame is higher than or equal to 8 then the ratio is labelled to be heteroresistant)” and the “HR? at MIC (40%)” value ([4]; KP/38.3002, Table 10) was “yes (If the ratio of the MIC value in the second time frame over the MIC value in the first time frame is higher than or equal to 8 then the ratio is labelled to be heteroresistant)”. The “HR? at MIC (60%)” value ([4]; KP/38.3002, Table 10) was “yes (If the ratio of the MIC value in the second time frame over the MIC value in the first time frame is higher than or equal to 8 then the ratio is labelled to be heteroresistant)”, the “HR? at MIC (75%)” value ([4]; KP/38.3002, Table 10) was “yes (If the ratio of the MIC value in the second time frame over the MIC value in the first time frame is higher than or equal to 8 then the ratio is labelled to be heteroresistant)” and the “HR? at MIC (40%)” value ([4]; KP/38.3002, Table 11) was “yes (If the ratio of the MIC value in the second time frame over the MIC value in the first time frame is higher than or equal to 8 then the ratio is labelled to be heteroresistant)”. The “HR? at MIC (60%)” value ([4]; KP/38.3002, Table 11) was “yes (If the ratio of the MIC value in the second time frame over the MIC value in the first time frame is higher than or equal to 8 then the ratio is labelled to be heteroresistant)”, the “HR? at MIC (75%)” value ([4]; KP/38.3002, Table 11) was “yes (If the ratio of the MIC value in the second time frame over the MIC value in the first time frame is higher than or equal to 8 then the ratio is labelled to be heteroresistant)” and the “HR? at MIC (25%)” value ([4]; KP/153.4346) was “no (If the ratio of the MIC value in the second time frame over the MIC value in the first time frame is lower than or equal to 4 then the ratio is labelled not to be heteroresistant)”. The “HR? at MIC (40%)” value ([4]; KP/153.4346) was “no (If the ratio of the MIC value in the second time frame over the MIC value in the first time frame is lower than or equal to 4 then the ratio is labelled not to be heteroresistant)”, the “HR? at MIC (60%)” value ([4]; KP/153.4346) was “yes (If the ratio of the MIC value in the second time frame over the MIC value in the first time frame is higher than or equal to 8 then the ratio is labelled to be heteroresistant)” and the “HR? at MIC (75%)” value ([4]; KP/153.4346) was “yes (If the ratio of the MIC value in the second time frame over the MIC value in the first time frame is higher than or equal to 8 then the ratio is labelled to be heteroresistant)”. For the same compound, the MIC ([4]; KP/38.3002, FIG. 5C, Table 5, read-out: MIC (25%) T1) was 16 µg/mL (≈ 53.4 µM), the MIC ([4]; KP/38.3002, FIG. 5C, Table 5, read-out: MIC (40%) T1) was 0.25 µg/mL (≈ 0.835 µM) and the MIC ([4]; KP/38.3002, FIG. 5C, Table 5, read-out: MIC (60%) T1) was 0.25 µg/mL (≈ 0.835 µM). It also gave an MIC ([4]; KP/38.3002, FIG. 5C, Table 5, read-out: MIC (75%) T1) of 0.25 µg/mL (≈ 0.835 µM), an MIC ([4]; KP/153.4346, read-out: MIC (25%) T1) of over 256 µg/mL and an MIC ([4]; KP/153.4346, read-out: MIC (40%) T1) of over 256 µg/mL. It also gave an MIC ([4]; KP/153.4346, read-out: MIC (60%) T1) of 0.5 µg/mL (≈ 1.67 µM), an MIC ([4]; KP/153.4346, read-out: MIC (75%) T1) of 0.5 µg/mL (≈ 1.67 µM) and an MIC ([4]; MP/072.3489, read-out: MIC (25%) T1) of 0.5 µg/mL (≈ 1.67 µM). It also gave an MIC ([4]; MP/072.3489, read-out: MIC (40%) T1) of 0.5 µg/mL (≈ 1.67 µM), an MIC ([4]; MP/072.3489, read-out: MIC (60%) T1) of 0.35 µg/mL (≈ 1.17 µM) and an MIC ([4]; MP/072.3489, read-out: MIC (75%) T1) of under 0.125 µg/mL.
